# Source: ChEMBL document CHEMBL3994641, “Design, synthesis, and cytotoxicity of stabilized mycolactone analogs” (Bioorg Med Chem Lett, 2017)
# What was measured:
# [1] = Stability of the compound in 0.1 M HCl in MeOH at 0.5 mg after 2 hrs by 1H-NMR spectroscopy; format: physicochemical
# [2] = Drug metabolism assessed as initial E/Zdouble-bond isomerization followed by photocyclization in acetone irradiated with UV light at 1 mg after 2 to 72 hrs by 1H-NMR spectroscopy; format: physicochemical
# [3] = Stability of the compound in 0.1 M HCl in MeOH at 0.5 mg after 8 hrs by 1H-NMR spectroscopy; format: physicochemical
# [4] = Stability of the compound in 0.1 M NaOH in MeOH at 0.5 mg after 2 hrs by 1H-NMR spectroscopy; format: physicochemical
# [5] = Thermal stability of the compound in acetone under sunlight at 60 degreeC after 1 day; format: physicochemical; details: 24 h
# [6] = Thermal stability of the compound in acetone under sunlight at 60 degreeC after 10 days; format: physicochemical; details: 240 h
# [7] = test system: HEK293; assay: Cytotoxicity against human HEK293 cells after 72 hrs by CellTiter blue staining based microscopic method; format: cell-based; details: HEK293, 72 h
# [8] = test system: A549; assay: Cytotoxicity against human A549 cells after 72 hrs by CellTiter blue staining based microscopic method; format: functional, cell-based; details: A549, 72 h
# [9] = test system: LOX IMVI; assay: Cytotoxicity against human LOXIMVI cells after 72 hrs by CellTiter blue staining based microscopic method; format: functional, cell-based
# [10] = test system: L929; assay: Cytotoxicity against mouse L929 cells after 72 hrs by CellTiter blue staining based microscopic method; format: cell-based; details: L929, 72 h
# [11] = Stability of the compound in acetone irradiated with UV light at 1 mg after 2 to 72 hrs by 1H-NMR spectroscopy; format: physicochemical
# [12] = Stability of the compound in 0.1 M NaOH in MeOH at 0.5 mg after 14 hrs by 1H-NMR spectroscopy; format: physicochemical
# [13] = Stability of the compound in 1 N HCl in water/0.1% Triton-X-100; format: physicochemical; details: buffer
# [14] = Stability of the compound in 1 N NaOH in water/0.1% Triton-X-100; format: physicochemical; details: buffer
# [15] = Drug metabolism assessed as compound decomposition in 0.1 M HCl in MeOH at 0.5 mg after 8 hrs by 1H-NMR spectroscopy; format: physicochemical; details: read-out: Drug metabolism
# [16] = Drug metabolism assessed as compound decomposition in 0.1 M NaOH in MeOH at 0.5 mg after 14 hrs by 1H-NMR spectroscopy; format: physicochemical; details: read-out: Drug metabolism
# [17] = Stability of the compound in DMSO/EtOH at -20 degreeC assessed as decomposition up to 1 month; format: physicochemical
# [18] = Drug metabolism assessed as compound decomposition in neat at room temperature up to 10 days; format: physicochemical; details: read-out: Drug metabolism
# [19] = Drug metabolism assessed as compound decomposition in DMSO/EtOH at -20 degreeC after 3 years; format: physicochemical; details: read-out: Drug metabolism
# [20] = Solubility of the compound in water; format: physicochemical; details: buffer
# [21] = Solubility of the compound in water/0.1% Triton-X-100/NP-40; format: physicochemical; details: buffer
# [22] = Drug metabolism assessed as E/Z double-bond isomerization by measuring delta4',5'-Z and delta4',5'-E isomers in acetone under sunlight at 60 degreeC after 1 day; format: physicochemical; details: 24 h
# [23] = Drug metabolism assessed as E/Z double-bond isomerization by measuring delta4',5'-Z and delta4',5'-E isomers in acetone under sunlight at 60 degreeC after 10 days; format: physicochemical; details: 240 h
Stability [1],Drug metabolism [2],Stability [3],Stability [4],Stability [5],Stability [6],Stability [11],Stability [12],Stability [13],Stability [14],SMILES,IC50 [7],IC50 [8],IC50 [9],IC50 [10],also measured
Stable,Metabolite_Notdetected,Stable,Stable,Stable,Stable,Stable,Stable,Stable,Stable,CC(/C=C/C(=O)O[C@H]1CCCC(=O)O[C@@H]([C@@H](C)C/C(C)=C/[C@@H](C)[C@H](O)C[C@@H](C)O)C/C=C(\C)C[C@@H]1C)=C\[C@H](C)C/C=C/C(C)=C/[C@H](O)[C@@H](O)C[C@H](C)O,83 nM,400 nM,120 nM,63 nM,–
Stable,Metabolite_Notdetected,Stable,Stable,Stable,Stable,Stable,Stable,Stable,Stable,CC(/C=C/C(=O)O[C@H]1CCCC(=O)O[C@@H]([C@@H](C)C/C(C)=C/[C@@H](C)[C@H](O)C[C@@H](C)O)C/C=C(\C)C[C@@H]1C)=C\[C@@H](C)C/C=C/C(C)=C/[C@H](O)[C@@H](O)C[C@H](C)O,3 nM,77 nM,29 nM,53 nM,–

SMILES,Stability [1],Drug metabolism [2],Stability [3],Stability [4],Stability [5],Stability [6],Stability [11],Stability [12],Stability [13],Stability [14],IC50 [7],IC50 [8],IC50 [9],IC50 [10],also measured
CC(=CC(/C)=C/C=C/C(C)=C/[C@H](O)[C@@H](O)C[C@H](C)O)/C=C/C(=O)O[C@H]1CCCC(=O)O[C@@H]([C@@H](C)C/C(C)=C/[C@@H](C)[C@H](O)C[C@@H](C)O)C/C=C(\C)C[C@@H]1C (mixture of isomers),Stable,Metabolite_Detected,–,Stable,Stable,Stable,–,–,Stable,Stable,3.2 nM,0.77 nM,6.9 nM,13 nM,degraded at 8 h [15]: 80%; degraded at 14 h [16]: 90%; Stability [17]: Stable; degraded at 240 h [18]: 20 to 30%; degraded at 26298 h [19]: 20%; solubility [20]: Insoluble; solubility [21]: Soluble; Drug metabolism [22]: Metabolite_Detected; Drug metabolism [23]: Metabolite_Detected
